In patent publication US20240009166A1, “USE OF ZANAMIVIR IN PREPARATION OF DRUG FOR TREATING OR PREVENTING PREECLAMPSIA” (Shenzhen Evergreen Therapeutics Co., Ltd., priority 2020, published 2024):
Entries after “also recorded” stand apart in the source; their conditions may differ.

Key:
Assay type in all cases: in vivo, CD-1 mice
[1] = test system: L-NAME-induced pre-eclampsia animal model; assay: 24-hour urinary total protein on days 17-18 of gestation in L-NAME-induced pre-eclampsia model; details: for L-NAME-induced 24-hour urinary protein elevation: vs pregnancy model group
Protocol: (§1) Pregnant CD-1 mice (age 8-10 weeks) were randomly divided into control and pre-eclampsia model groups. On days 7-16 of the gestational cycle, the model group mice were induced with preeclampsia by subcutaneous injection of 50 mg/kg of N-nitro-L-arginine methyl ester (L-NAME) daily. For the control group, an equal volume of the solvent was injected subcutaneously. [table] In animal models of L-NAME-induced pre-eclampsia, symptoms of hypertension appear two days after the first administration of L-NAME and persist until at least five days after the first administration of L-NAME, according to the literature. The appearance of proteinuric symptoms was relatively late. Therefore, in this experiment, we focused on monitoring the blood pressure of […] on day 12 of gestation (i.e., five days after the first administration of L-NAME), as well as collecting 24-hour urine on day 17-18 of gestation and measuring the level of total protein. Also, we recorded the number of pups produced by each group of pregnant rats.

[2] = test system: L-NAME-induced pre-eclampsia animal model; assay: Number of pups (litter size) in L-NAME-induced pre-eclampsia model
Protocol: as §1

[3] = test system: L-NAME-induced pre-eclampsia animal model; assay: Blood pressure on day 12 of gestation in L-NAME-induced pre-eclampsia model; details: days 1-18 of pregnancy, vs pregnancy model group
Protocol: as §1

[4] = 90 mg/kg tail vein injection daily
[5] = 120 mg/kg tail vein injection daily

CC(=O)N[C@H]1[C@H]([C@H](O)[C@H](O)CO)OC(C(=O)O)=C[C@@H]1N=C(N)N [zanamivir, 5-acetamido-4-[(aminoiminomethyl)-amino]-2,6-hydro-3,4,5-trideoxy-D-propanetriolyl-D-galactos-2-enolonic acid]
L-NAME-induced 24-hour urinary protein elevation [1, 4]: significantly reduced | L-NAME-induced 24-hour urinary protein elevation [1, 5]: significantly reduced | L-NAME-induced elevation of 24-hour urinary protein ([1]; FIG. 4 legend, dose not stated): significantly reduces | reduction of litter size caused by L-NAME ([2]; 90 mg/kg tail vein injection daily, vs pregnancy model group): significantly improved | reduction of litter size caused by L-NAME ([2]; 120 mg/kg tail vein injection daily, vs pregnancy model group): significantly improved; also recorded: returning to a level comparable to that of the pregnant control group | reduction of litter size caused by L-NAME ([2]; FIG. 5 legend, dose not stated): significantly improved | blood pressure [3, 4]: did not significantly change | L-NAME-induced increase in diastolic blood pressure [3, 5]: significantly reduced | L-NAME-induced increase in mean arterial pressure [3, 5]: significantly reduced | L-NAME-induced increase in systolic blood pressure [3, 5]: significantly reduced
